Reference: ChEMBL document CHEMBL1201862, “PubChem BioAssay data set” (2004)
The source made the active and inactive calls.

Assays:
[1] = target: T1, DNA repair and recombination protein RAD54-like (Homo sapiens, UniProt Q92698); assay: inhibitors of human RAD54 branch migration, confirmation, biochemical, fluorescence, cherry-picked samples, dose series (AID 651657); assay type: functional
T1 sequence (Q92698 whole entry): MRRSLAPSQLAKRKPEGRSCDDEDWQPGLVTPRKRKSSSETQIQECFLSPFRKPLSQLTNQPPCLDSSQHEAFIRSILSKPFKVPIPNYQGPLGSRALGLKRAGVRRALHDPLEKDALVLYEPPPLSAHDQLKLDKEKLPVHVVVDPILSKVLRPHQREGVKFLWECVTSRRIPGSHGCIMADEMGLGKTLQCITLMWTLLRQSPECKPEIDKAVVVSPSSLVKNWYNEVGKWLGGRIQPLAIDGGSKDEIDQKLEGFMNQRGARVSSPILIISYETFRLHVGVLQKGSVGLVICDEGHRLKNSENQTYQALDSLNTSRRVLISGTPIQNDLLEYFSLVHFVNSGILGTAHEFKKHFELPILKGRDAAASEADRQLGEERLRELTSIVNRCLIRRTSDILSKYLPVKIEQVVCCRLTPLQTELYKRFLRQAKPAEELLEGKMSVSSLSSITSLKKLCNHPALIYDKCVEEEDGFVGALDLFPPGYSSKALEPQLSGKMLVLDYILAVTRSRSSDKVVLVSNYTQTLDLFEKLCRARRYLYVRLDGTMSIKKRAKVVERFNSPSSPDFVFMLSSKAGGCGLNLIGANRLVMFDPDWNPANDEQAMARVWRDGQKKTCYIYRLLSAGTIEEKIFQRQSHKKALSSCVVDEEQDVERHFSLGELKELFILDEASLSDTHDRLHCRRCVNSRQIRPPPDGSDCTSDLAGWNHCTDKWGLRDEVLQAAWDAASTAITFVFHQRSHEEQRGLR

[2] = DNA binding of candidate compounds, dose response, artefact control for RAD54 inhibitor project, biochemical, fluorescence polarization, cherry-pick (AID 651673); assay type: functional
[3] = inhibitors of intracellular T. cruzi replication, confirmation, NIH3T3 host cells, beta-gal luminescence (AID 2044); assay type: functional, cell-based;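 also: intracellular parasites grown in NIH/3T3 mouse fibroblasts as host cells; luminescent beta-galactosidase reporter signal from transgenic T. cruzi replicating inside host cells; inhibitors lower the luminescence signal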
[4] = growth suppression of beta-catenin-knockout colon cells, dose response, cell-based, HCT116, human colon tumor (AID 1045); assay type: functional;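 also: HCT116 colon tumor cells with beta catenin knocked out; cells exposed to compound for 60 hours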
[5] = MDA-MB-231 cell growth inhibition, dose response, cytotoxicity control for RAD54 inhibitor project, CellTiter-Glo luminescence, cherry-pick (AID 651692); assay type: functional, cell-based
[6] = growth suppression of PTEN-null colon cells, dose response, cell-based, HCT116 PTEN knockout (AID 1047); assay type: functional;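 also: HCT116 colon tumor cells with PTEN knocked out; cells exposed to compound for 60 hours before readout; potency for loss of cell viability measured by luminescence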
[7] = cytotoxicity toward NIH3T3 fibroblasts, dose response, counter-screen, cell-based, ATP luminescence, mouse fibroblasts (AID 2010); assay type: functional;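 also: cells exposed to compound for about 90 hours before reading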
Mu-type opioid receptor = Mu-type opioid receptor (Homo sapiens, UniProt P35372); assay type: functional, cell-based;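 also: U2OS cells with beta-arrestin recruitment to OPRM1 by beta-gal complementation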
[8] = target: 5-hydroxytryptamine receptor 2A (Mus musculus, UniProt P35363); assay type: functional, cell-based;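 also: CHO-K1 cells with tagged receptor and beta-arrestin; agonist potency measured as compound-induced activation of the receptor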
[9] = Counterscreen for activators of the function of SWI/SNF related, matrix associated, actin dependent regulator of chromatin, subfamily a, member 2 (SMARCA2, BRM): Luminescence-based cell-based high throughput dose response assay to identify non-selective compounds using the VP16 reporter assay.; assay type: functional
[10] = target: SWI/SNF-related matrix-associated actin-dependent regulator of chromatin subfamily A member 2 (Homo sapiens, UniProt P51531); assay: Luminescence-based cell-based high throughput dose response assay to identify activators of the function of SWI/SNF related, matrix associated, actin dependent regulator of chromatin, subfamily a, member 2 (SMARCA2, BRM).; assay type: functional
[11] = HeLa cell cytotoxicity, dose response, cytotoxicity control for MgcRacGAP inhibitor project (AID 624300); assay type: functional
[12] = target: T2, Rac GTPase-activating protein 1 (Homo sapiens, UniProt Q9H0H5); assay: MgcRacGAP GTPase-activating activity inhibitors, confirmation, biochemical, ADP Hunter fluorescence, primary and confirmatory (AID 624330); assay type: functional
T2 sequence (Q9H0H5 whole entry): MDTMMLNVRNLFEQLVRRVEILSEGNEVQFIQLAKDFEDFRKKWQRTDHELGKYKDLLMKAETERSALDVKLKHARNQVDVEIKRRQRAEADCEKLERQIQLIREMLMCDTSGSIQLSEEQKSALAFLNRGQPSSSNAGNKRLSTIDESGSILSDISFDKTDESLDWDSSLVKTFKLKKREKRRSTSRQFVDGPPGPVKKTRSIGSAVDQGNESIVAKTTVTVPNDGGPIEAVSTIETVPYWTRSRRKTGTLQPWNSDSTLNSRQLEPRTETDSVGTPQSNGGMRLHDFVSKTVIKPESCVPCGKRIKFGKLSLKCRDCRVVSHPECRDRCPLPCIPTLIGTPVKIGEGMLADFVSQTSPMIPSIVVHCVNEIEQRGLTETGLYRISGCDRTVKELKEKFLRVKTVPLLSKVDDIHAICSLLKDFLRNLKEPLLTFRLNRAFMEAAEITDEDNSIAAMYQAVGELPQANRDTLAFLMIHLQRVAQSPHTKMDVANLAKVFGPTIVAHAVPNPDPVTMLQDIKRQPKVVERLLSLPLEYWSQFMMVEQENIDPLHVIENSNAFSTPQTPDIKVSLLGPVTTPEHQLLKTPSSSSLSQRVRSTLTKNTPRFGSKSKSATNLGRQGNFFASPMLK

[13] = target: T3, Sentrin-specific protease 1 (Homo sapiens, UniProt Q9P0U3); assay: Dose response confirmation of small molecule inhibitors of the catalytic domain of the SUMO protease, SENP1 in a FRET assay.; assay type: functional; details: read-out: IC50_Mean
[14] = target: T3, Sentrin-specific protease 1; assay: potency of human SENP1 inhibitors, dose response, biochemical, kinetic FRET (AID 651697); assay type: functional; details: read-out: IC50_Mean
SUMO-activating enzyme [15] = target: T4, SUMO-activating enzyme (Homo sapiens, UniProt Q9UBT2); assay: SUMOylation inhibitor hit validation, confirmation, SUMOylation inhibitor project, biochemical, AlphaScreen (AID 2018); assay type: functional
SUMO-activating enzyme [16] = target: T4, SUMO-activating enzyme; assay: inhibitors of in vitro SUMOylation cascade, primary screen, biochemical, HTRF, uHTS (AID 2006); assay type: protein-complex assay
[17] = target: T5, Voltage-gated N-type calcium channel alpha-1B subunit/Amyloid beta A4 precursor protein-binding family A member 1 (Homo sapiens, UniProt Q00975+Q02410); assay type: protein assay
[18] = target: Dual specificity protein phosphatase 3 (Homo sapiens, UniProt P51452); assay: VHR phosphatase inhibition, dose response, selectivity assay for STEP inhibitor project, biochemical (AID 602374); assay type: functional; details: read-out: IC50_Mean
[19] = target: T6, Small ubiquitin-related modifier 1 (Homo sapiens, UniProt P63165); assay: inhibitors of SUMO1 partner interactions, dose response, biochemical, FRET (AID 624383); assay type: functional; details: read-out: IC50_Mean
[20] = target: T6, Small ubiquitin-related modifier 1; assay: inhibitors of SUMO1 peptide binding, dose response, biochemical, fluorescence polarization, uHTS hits (AID 624382); assay type: functional; details: read-out: IC50_Mean
[21] = target: Tyrosine-protein phosphatase non-receptor type 11 (Homo sapiens, UniProt Q06124); assay: SHP2 phosphatase inhibition, dose response, selectivity assay for STEP inhibitor project, biochemical (AID 602367); assay type: functional; details: read-out: IC50_Mean
[22] = target: T5, Voltage-gated N-type calcium channel alpha-1B subunit/Amyloid beta A4 precursor protein-binding family A member 1; assay type: protein assay; remark: listed apart in the source
[23] = target: Tyrosine-protein phosphatase non-receptor type 22 (Homo sapiens, UniProt Q9Y2R2); assay: PTPN22 phosphatase inhibition, dose response, selectivity assay for STEP inhibitor project, biochemical (AID 624241); assay type: functional
[24] = target: Tyrosine-protein phosphatase non-receptor type 5 (Homo sapiens, UniProt P54829); assay: STEP phosphatase inhibitors, confirmation, biochemical, fluorescence intensity, uHTS hits (AID 602372); assay type: functional; details: read-out: IC50_Mean
[25] = target: T7, Trace amine-associated receptor 1 (Homo sapiens, UniProt Q96RJ0); assay: Counterscreen for agonists of the human trace amine associated receptor 1 (hTAAR1): Fluorescence-based cell-based high throughput dose response assay to identify hTAAR1 agonist that also desensitize TAAR1 receptor response.; assay type: functional
[26] = target: T7, Trace amine-associated receptor 1; assay: Fluorescence-based cell-based high throughput dose response assay to identify agonists of the human trace amine associated receptor 1 (TAAR1).; assay type: functional
cells [27] = assay type: functional, cell-based
cells [28] = assay type: functional, cell-based; remark: listed apart in the source
Beta-lactamase [29] = target: Beta-lactamase (Salmonella choleraesuis (strain SC-B67), UniProt Q5J463)
Beta-lactamase [30] = target: Beta-lactamase (Pseudomonas aeruginosa, UniProt Q79MP6);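 also: biochemical dose-response test of metallo-beta-lactamase enzyme inhibition, read out by epi-absorbance; purified recombinant IMP-1 metallo-beta-lactamase with nitrocefin as substrate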

T7 sequence (Q96RJ0 whole entry): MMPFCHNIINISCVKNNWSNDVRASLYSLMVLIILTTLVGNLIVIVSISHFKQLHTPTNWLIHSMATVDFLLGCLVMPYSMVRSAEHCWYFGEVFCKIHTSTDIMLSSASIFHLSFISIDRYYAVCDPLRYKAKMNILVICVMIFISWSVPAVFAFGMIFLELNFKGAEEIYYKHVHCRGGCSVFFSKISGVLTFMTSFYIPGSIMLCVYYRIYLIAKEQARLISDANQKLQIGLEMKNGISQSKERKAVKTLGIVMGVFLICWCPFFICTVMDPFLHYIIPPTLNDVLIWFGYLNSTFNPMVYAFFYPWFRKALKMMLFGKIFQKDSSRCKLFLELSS
T5 sequence (Q00975 whole entry): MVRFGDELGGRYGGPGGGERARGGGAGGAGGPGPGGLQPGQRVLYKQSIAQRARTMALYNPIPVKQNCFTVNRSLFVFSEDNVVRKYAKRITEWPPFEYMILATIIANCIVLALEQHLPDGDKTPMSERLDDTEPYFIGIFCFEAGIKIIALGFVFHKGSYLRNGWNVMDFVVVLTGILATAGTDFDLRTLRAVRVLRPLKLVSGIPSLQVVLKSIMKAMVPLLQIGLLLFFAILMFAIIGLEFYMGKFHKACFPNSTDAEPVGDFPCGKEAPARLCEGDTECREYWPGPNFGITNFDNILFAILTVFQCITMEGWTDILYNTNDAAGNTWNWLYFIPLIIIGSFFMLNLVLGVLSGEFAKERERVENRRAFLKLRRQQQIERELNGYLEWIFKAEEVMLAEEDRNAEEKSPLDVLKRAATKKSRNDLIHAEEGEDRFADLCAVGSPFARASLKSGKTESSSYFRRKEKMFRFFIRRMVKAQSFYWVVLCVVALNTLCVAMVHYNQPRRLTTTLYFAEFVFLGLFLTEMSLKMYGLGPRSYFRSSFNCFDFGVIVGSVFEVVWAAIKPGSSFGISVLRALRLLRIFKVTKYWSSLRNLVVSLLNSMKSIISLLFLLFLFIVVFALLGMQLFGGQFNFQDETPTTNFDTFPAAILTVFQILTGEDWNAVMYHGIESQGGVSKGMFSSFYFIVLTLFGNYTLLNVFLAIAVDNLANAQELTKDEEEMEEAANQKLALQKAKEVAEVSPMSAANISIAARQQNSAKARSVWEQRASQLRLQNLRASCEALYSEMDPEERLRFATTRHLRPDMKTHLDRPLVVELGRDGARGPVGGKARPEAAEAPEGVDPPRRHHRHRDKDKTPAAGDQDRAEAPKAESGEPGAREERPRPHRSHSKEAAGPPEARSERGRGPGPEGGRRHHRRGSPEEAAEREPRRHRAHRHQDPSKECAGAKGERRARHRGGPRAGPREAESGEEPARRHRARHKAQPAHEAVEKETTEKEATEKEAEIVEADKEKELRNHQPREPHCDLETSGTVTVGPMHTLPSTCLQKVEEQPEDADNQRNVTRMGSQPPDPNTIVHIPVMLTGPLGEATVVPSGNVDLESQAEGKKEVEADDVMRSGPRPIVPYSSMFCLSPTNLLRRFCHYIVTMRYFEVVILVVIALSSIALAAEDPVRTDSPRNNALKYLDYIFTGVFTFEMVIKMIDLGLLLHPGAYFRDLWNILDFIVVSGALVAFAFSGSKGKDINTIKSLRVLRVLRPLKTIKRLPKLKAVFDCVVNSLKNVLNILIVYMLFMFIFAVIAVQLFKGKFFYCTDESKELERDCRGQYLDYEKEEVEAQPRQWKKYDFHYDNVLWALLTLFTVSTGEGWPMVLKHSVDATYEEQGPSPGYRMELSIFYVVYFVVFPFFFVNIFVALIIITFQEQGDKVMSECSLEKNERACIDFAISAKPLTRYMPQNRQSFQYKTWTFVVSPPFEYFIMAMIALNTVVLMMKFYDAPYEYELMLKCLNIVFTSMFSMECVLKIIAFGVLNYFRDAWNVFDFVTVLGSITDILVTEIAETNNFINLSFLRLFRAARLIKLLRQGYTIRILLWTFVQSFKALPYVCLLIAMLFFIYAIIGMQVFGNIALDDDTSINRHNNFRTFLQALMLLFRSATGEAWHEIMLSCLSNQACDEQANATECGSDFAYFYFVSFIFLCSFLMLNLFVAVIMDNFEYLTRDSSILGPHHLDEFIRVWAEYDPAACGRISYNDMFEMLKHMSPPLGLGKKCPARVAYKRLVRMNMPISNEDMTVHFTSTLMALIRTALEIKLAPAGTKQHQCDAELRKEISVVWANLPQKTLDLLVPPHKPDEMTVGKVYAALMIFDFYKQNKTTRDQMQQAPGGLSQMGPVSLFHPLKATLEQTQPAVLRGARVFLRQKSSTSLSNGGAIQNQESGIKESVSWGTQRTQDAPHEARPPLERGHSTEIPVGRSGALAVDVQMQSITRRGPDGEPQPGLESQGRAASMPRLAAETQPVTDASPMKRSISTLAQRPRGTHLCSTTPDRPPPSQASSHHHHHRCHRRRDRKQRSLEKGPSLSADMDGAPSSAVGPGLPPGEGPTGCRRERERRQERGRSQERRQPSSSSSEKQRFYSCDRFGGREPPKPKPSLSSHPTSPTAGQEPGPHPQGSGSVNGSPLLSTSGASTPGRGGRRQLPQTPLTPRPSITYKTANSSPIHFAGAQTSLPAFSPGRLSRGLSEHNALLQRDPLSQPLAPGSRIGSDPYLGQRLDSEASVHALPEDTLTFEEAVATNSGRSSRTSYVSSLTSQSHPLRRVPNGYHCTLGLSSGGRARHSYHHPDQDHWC
T5 sequence (Q02410 whole entry): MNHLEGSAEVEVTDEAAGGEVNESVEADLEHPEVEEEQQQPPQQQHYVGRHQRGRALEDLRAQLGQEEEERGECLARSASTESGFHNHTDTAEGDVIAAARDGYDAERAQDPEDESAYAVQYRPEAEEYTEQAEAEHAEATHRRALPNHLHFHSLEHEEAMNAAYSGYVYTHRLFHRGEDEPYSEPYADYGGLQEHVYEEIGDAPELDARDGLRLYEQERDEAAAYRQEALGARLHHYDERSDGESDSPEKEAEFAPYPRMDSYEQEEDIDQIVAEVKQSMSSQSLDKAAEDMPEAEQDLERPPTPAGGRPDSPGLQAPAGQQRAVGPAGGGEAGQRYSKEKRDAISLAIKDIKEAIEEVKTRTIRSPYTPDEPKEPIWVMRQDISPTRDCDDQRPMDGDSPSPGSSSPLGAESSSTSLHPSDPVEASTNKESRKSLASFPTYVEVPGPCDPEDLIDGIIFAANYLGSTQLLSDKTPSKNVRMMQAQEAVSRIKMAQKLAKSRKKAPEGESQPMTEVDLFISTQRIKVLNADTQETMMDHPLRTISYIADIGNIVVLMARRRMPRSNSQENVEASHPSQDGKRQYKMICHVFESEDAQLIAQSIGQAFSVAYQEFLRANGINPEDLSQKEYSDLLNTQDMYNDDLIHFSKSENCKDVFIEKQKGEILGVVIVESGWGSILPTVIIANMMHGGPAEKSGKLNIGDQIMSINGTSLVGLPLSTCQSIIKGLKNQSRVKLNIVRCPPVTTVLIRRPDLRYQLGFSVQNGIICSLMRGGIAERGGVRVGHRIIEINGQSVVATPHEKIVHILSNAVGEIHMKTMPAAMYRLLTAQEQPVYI
T3 sequence (Q9P0U3 whole entry, the tested form may be a part): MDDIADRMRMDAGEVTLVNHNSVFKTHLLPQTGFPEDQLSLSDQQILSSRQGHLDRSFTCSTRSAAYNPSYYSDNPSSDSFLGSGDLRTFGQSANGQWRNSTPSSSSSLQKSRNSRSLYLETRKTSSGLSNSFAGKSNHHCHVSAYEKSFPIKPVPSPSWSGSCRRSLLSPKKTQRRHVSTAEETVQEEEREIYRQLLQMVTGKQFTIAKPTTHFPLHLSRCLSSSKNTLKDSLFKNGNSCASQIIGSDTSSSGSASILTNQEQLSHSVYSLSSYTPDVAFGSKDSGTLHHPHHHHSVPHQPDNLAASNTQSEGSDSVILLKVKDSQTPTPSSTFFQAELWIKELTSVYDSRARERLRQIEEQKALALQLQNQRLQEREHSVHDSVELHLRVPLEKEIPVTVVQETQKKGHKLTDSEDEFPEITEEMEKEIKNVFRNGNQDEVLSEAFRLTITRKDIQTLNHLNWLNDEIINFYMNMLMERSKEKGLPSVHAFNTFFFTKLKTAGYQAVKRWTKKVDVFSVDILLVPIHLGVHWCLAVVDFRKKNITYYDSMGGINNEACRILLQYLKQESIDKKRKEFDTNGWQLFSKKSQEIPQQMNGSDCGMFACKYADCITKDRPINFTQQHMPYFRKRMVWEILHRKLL
T6 sequence (P63165 whole entry): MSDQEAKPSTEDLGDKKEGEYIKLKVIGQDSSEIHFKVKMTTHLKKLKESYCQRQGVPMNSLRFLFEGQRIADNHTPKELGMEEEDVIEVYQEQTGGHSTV
Sequence of Beta-lactamase (Salmonella choleraesuis (strain SC-B67), UniProt Q5J463) (Q5J463 whole entry): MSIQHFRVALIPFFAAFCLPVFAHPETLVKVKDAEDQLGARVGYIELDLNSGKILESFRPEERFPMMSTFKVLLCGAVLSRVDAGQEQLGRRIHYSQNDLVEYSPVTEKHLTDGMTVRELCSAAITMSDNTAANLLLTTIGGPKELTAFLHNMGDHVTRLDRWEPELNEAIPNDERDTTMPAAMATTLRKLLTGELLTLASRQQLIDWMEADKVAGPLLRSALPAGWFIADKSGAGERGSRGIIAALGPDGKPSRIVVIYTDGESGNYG
Sequence of Mu-type opioid receptor (P35372 whole entry): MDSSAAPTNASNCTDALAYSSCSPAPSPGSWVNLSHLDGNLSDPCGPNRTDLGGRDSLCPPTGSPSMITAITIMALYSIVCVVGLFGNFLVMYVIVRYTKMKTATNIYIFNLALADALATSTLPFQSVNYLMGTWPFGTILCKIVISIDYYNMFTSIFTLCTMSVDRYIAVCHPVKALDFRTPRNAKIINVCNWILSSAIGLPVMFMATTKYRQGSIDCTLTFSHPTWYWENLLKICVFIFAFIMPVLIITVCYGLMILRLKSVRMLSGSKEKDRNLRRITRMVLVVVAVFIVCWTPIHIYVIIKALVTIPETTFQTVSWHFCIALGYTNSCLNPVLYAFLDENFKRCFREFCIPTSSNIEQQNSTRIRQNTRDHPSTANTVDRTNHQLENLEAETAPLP

COc1ccc(Nc2nc(N3CCCC3)nc3ccccc23)c(OC)c1
AC50 [1]: 6.47 µM (active) | AC50 [2]: 63.3 µM (active) | EC50 [3]: 0.627 µM (active) | EC50 [4]: 1.2 µM (active) | AC50 [5]: 35.6 µM (active) | EC50 [6]: 1.97 µM (active) | EC50 [7]: 22.2 µM (active)

COc1ccc(CN2CCN(c3ncccn3)CC2)c(C)c1C
EC50 (Mu-type opioid receptor): 92.5 µM (inactive) | EC50 [8]: 0.263 µM (active)

CC(=O)c1ccc(OCCCC(=O)OCc2nnc(-c3ccc(Cl)cc3)o2)cc1
EC50 [9]: > 91.1 µM (inactive) | EC50 [10]: > 91.1 µM (inactive)

Cn1c(-c2ccc3c(c2)OCO3)cnc1NCc1ccccc1Cl
CC50 [11]: 100 µM (active) | IC50 [12]: 72 µM (active)

O=C1C=C(Nc2ccc(Cl)cc2)C(=O)N1c1ccc(Cl)cc1
IC50 [13]: 12.5 µM (active) | IC50 [14]: 21 µM (inactive)

CCCc1cc(=O)oc2cc(OCC(=O)Nc3ccc(S(N)(=O)=O)cc3)ccc12
IC50 (SUMO-activating enzyme [15]): 6.11 µM (active) | IC50 (SUMO-activating enzyme [16]): 11.5 µM (active) | IC50 [17]: > 50 µM (inactive) | IC50 [18]: 5.69 µM (active) | IC50 [19]: 6.44 µM (active) | IC50 [20]: > 66.6 µM (inactive) | IC50 [21]: 1.15 µM (active) | IC50 [22]: 14.2 µM (active) | IC50 [23]: 31 µM (inactive) | IC50 [24]: 15.5 µM (active)

O=C(O)C1CCCCC1C(=O)NCCc1cccc(Cl)c1 (stereo unspecified)
IC50 [25]: > 29.9 µM (inactive) | EC50 [26]: 2.5 µM (active) | IC50 (cells [27]): > 29.9 µM (inactive) | EC50 (cells [28]): > 29.9 µM (inactive)

CC(C)C(CCN1C(=O)c2ccccc2C1=O)c1ccco1 (stereo unspecified)
IC50 (Beta-lactamase [29]): > 59.6 µM (inactive) | IC50 (Beta-lactamase [30]): 36.8 µM (inactive)
